Data reported in ChEMBL document CHEMBL3797064, “An evaluation of synthetic indole derivatives as inhibitors of monoamine oxidase” (Bioorg Med Chem Lett, 2016).

Key:
[1] = target: T1, Amine oxidase [flavin-containing] A (Homo sapiens, UniProt P21397); experiment: Inhibition of human recombinant MAO-A using kynuramine as substrate incubated for 20 mins by fluorescence spectrophotometric analysis
T1 sequence (P21397 whole entry): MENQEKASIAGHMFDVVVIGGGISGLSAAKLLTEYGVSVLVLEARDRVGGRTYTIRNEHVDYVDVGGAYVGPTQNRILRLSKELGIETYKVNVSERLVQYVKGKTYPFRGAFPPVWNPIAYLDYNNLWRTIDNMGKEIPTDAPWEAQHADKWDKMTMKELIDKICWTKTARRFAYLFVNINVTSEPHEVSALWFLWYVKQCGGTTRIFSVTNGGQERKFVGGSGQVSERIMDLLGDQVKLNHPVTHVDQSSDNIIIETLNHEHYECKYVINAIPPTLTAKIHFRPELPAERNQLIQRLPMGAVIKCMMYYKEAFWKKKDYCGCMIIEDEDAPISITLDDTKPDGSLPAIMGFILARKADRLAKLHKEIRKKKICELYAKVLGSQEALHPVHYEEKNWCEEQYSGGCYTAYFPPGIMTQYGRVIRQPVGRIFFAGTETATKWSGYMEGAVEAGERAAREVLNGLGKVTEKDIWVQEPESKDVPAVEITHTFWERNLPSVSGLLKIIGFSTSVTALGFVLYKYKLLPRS

Homo sapiens = organism: Homo sapiens; experiment: Selectivity index, ratio of IC50 for human recombinant MAO-B to IC50 for human recombinant MAO-A
[2] = target: T2, Amine oxidase [flavin-containing] B (Homo sapiens, UniProt P27338); experiment: Inhibition of human recombinant MAO-B using kynuramine as substrate incubated for 20 mins by fluorescence spectrophotometric analysis
T2 sequence (P27338 whole entry): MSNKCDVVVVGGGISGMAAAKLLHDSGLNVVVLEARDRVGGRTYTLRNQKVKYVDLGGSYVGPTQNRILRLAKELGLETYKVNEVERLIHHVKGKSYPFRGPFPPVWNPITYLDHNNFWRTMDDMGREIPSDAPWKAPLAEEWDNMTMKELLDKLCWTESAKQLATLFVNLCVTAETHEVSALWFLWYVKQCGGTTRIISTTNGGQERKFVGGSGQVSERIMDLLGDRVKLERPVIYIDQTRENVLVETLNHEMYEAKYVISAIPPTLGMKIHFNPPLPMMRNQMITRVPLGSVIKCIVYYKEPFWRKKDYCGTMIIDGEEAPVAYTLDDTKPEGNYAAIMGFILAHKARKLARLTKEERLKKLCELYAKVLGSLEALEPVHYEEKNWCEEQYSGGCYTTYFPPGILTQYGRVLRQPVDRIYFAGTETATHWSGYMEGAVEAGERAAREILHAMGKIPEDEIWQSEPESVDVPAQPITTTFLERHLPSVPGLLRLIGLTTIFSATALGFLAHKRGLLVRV

| IC50 [1] [µM] | Ratio IC50 (Homo sapiens) | IC50 [2] [µM] | Structure (SMILES) |
| --- | --- | --- | --- |
| 6.92 | 1.5 | 10.3 | N#Cc1cc2cc(-c3ccccc3)n(O)c2cc1C#N |
| 11.1 | > 9 | > 100 | N#Cc1cc2cc(-c3cccs3)n(O)c2cc1C#N |
| 6.7 | 0.56 | 3.75 | COn1c(-c2cccs2)cc2cc3c(cc21)C(=O)NC3=O |
| > 100 | – | > 100 | COc1ccc(-c2cc3cc(C(=O)O)c(C(=O)O)cc3n2O)cc1 |
| 6.12 | > 16 | > 100 | O=C(Cc1cc2c(cc1[N+](=O)[O-])C(=O)NC2=O)c1cccs1 |
| 2.11 | 0.44 | 0.923 | Cc1ccc(C(=O)Cc2cc3c(cc2[N+](=O)[O-])C(=O)NC3=O)cc1 |
| > 100 | – | > 100 | O=C(Cc1cc(C(=O)O)c(C(=O)O)cc1[N+](=O)[O-])c1ccccc1 |
| > 100 | – | > 100 | Cc1ccc(-c2cc3cc(C(=O)O)c(C(=O)O)cc3n2O)cc1 |
| 1.75 | 0.33 | 0.581 | COn1c(-c2ccc(C)cc2)cc2cc3c(cc21)C(=O)NC3=O |
| 4.99 | > 20 | > 100 | COn1c(-c2ccccc2)c(CO)c2cc(C#N)c(C#N)cc21 |
| 0.25 | > 400 | > 100 | O=C1NC(=O)c2cc3c(Cl)c(-c4ccccc4)[nH]c3cc21 |
| > 100 | – | > 100 | COn1c(-c2ccccc2)c(Br)c2cc(C#N)c(C#N)cc21 |
| 1.13 | > 88 | > 100 | COc1ccc(-c2c(CO)c3cc(C#N)c(C#N)cc3n2OC)cc1 |
| > 100 | – | > 100 | O=C(Cc1cc(C(=O)O)c(C(=O)O)cc1[N+](=O)[O-])c1cccs1 |
| 6.35 | > 16 | > 100 | O=C1NC(=O)c2cc3c(cc21)cc(-c1cccs1)n3O |
| 0.522 | > 192 | > 100 | COn1c(-c2ccccc2)c(C=O)c2cc(C#N)c(C#N)cc21 |
| 1.16 | 7 | 8.09 | Cc1ccc(-c2cc3cc4c(cc3n2O)C(=O)NC4=O)cc1 |
| 23.3 | 2.4 | 56.2 | O=C(O)c1cc2cc(-c3ccccc3)n(O)c2cc1C(=O)O |

| IC50 [1] [µM] | Ratio IC50 (Homo sapiens) | IC50 [2] [µM] | Structure (SMILES) |
| --- | --- | --- | --- |
| > 100 | – | > 100 | Cc1ccc(C(=O)Cc2cc(C(=O)O)c(C(=O)O)cc2[N+](=O)[O-])cc1 |
| 1.84 | 0.97 | 1.79 | COc1ccc(-c2cc3cc(C#N)c(C#N)cc3n2O)cc1 |
| 0.661 | 1.8 | 1.21 | COc1ccc(C(=O)Cc2cc3c(cc2[N+](=O)[O-])C(=O)NC3=O)cc1 |
| 1.14 | 0.72 | 0.821 | Cc1ccc(-c2cc3cc(C#N)c(C#N)cc3n2O)cc1 |
| 5.51 | > 18 | > 100 | COc1ccc(C(=O)Cc2cc3c(cc2[N+](=O)[O-])C(=O)N(Cc2ccccc2)C3=O)cc1 |
| > 100 | – | > 100 | O=C(Cc1cc2c(cc1[N+](=O)[O-])C(=O)N(Cc1ccccc1)C2=O)c1cccs1 |
| 0.147 | > 680 | > 100 | COc1ccc(-c2c(C=O)c3cc(C#N)c(C#N)cc3n2OC)cc1 |
| 19 | > 5.3 | > 100 | COC(=O)c1cc2cc(-c3ccc(OC)cc3)n(OC)c2cc1C(=O)OC |
| > 100 | – | > 100 | COc1ccc(C(=O)Cc2cc(C(=O)O)c(C(=O)O)cc2[N+](=O)[O-])cc1 |
| 2.08 | 0.93 | 1.94 | CC(=O)On1c(-c2cccs2)cc2cc(C#N)c(C#N)cc21 |
| > 100 | – | > 100 | O=C(O)c1cc2cc(-c3cccs3)n(O)c2cc1C(=O)O |
| 5.38 | 1.3 | 6.79 | O=C(Cc1cc2c(cc1[N+](=O)[O-])C(=O)NC2=O)c1ccccc1 |
| 1.24 | > 81 | > 100 | COn1c(-c2ccccc2)cc2cc3c(cc21)C(=O)N(C)C3=O |
| > 100 | < 0.83 | 83.1 | O=C1NC(=O)c2cc3c(cc21)cc(-c1ccccc1)n3O |
| 5.12 | > 20 | > 100 | COn1c(-c2ccc(C)cc2)c(CO)c2cc(C#N)c(C#N)cc21 |
| 0.405 | 185 | 74.8 | COn1c(-c2ccc(C)cc2)c(C=O)c2cc(C#N)c(C#N)cc21 |
| > 100 | < 0.075 | 7.46 | COn1c(-c2ccc(C)cc2)c(Br)c2cc(C#N)c(C#N)cc21 |
